Experimental data as given in patent publication EP2433927A1, “KETOXIME ESTER PHOTOINITIATOR” (Changzhou Tronly New Electronic Materials Co., Ltd, priority 2009, dated 2010).

What was measured:
[1] = Thermal stability by TGA (temperature at weight loss); assay type: physicochemical; settings: for Temp. at Weight Loss 5% / Temp. at Weight Loss 10% / Temp. at Weight Loss 15%: TGA, N2 at 10 °C/min; for Temp. at Weight Loss 5%: 5% weight loss; for Temp. at Weight Loss 10%: 10% weight loss; for Temp. at Weight Loss 15%: 15% weight loss; for thermal stability: result in words, compared with material A (OXE-1)
[2] = Solubility of the photoinitiators in organic solvents; assay type: physicochemical; settings: 20°C, 100 g solvent

Row | Temp. at Weight Loss 5% [1] [°C] | Temp. at Weight Loss 10% [1] [°C] | Temp. at Weight Loss 15% [1] [°C] | solubility ([2]; solvent PGMEA) [g] | solubility ([2]; solvent cyclohexanone) [g] | SMILES | thermal stability [1]
1 | 230 | 245 | 255 | 6.93 | 18 | CCn1c2ccc(C(=O)C(CC3CCCC3)=NOC(=O)c3ccccc3)cc2c2cc(C(=O)c3ccccc3C)ccc21 [C, 1-(6-o-methylbenzoyl-9-ethylcarbazole-3-yl)-(3-cyclopentyl)-propane-1,2-dione-2-benzoic acid oxime ester] | better thermal stability than that of material A
2 | 185 | 201 | 213 |  |  | CCCCCCC(=NOC(=O)c1ccccc1)C(=O)c1ccc(Sc2ccccc2)cc1 [A, 1-(4-phenylthiophenyl)-n-octane-1,2-dione-2-benzoic acid oxime ester, reference compound] | 
3 | 205 | 225 | 236 | 27.49 | 35 | O=C(ON=C(CC1CCCC1)C(=O)c1ccc(Sc2ccccc2)cc1)c1ccccc1 [B, 1-(4-phenylthiophenyl)-(3-cyclopentyl)-propane-1,2-dione-2-benzoic acid oxime ester] | better thermal stability than that of material A
